# Reference: ChEMBL document CHEMBL6115029, “Discovery of Daraxonrasib (RMC-6236), a Potent and Orally Bioavailable RAS(ON) Multi-selective, Noncovalent Tri-complex Inhibitor for the Treatment of Patients with Multiple RAS-Addicted Cancers” (J Med Chem, 2025)
# Legend:
# [1] = biological target: Peptidyl-prolyl cis-trans isomerase A (Homo sapiens, UniProt P62937); assay: Binding affinity to Avi-tagged Cyclophilin A (unknown origin) assessed as dissociation constant by SPR analysis
# [2] = Inhibition of 6His-tagged KRAS G12D mutant(1 to 169 residues)/GST-tagged GMPPNP-bound BRAF RBD (155 to 229 reisudes)/Cyclophilin A (unknown origin) tri-complex protein-protein interaction incubated for 3 hrs by TR-FERT based disruption assay; design: species or system Homo sapiens
# [3] = Inhibition of 6His-tagged KRAS G12C mutant(1 to 169 residues)/GST-tagged GMPPNP-bound BRAF RBD (155 to 229 reisudes)/Cyclophilin A (unknown origin) tri-complex protein-protein interaction incubated for 3 hrs by TR-FERT based disruption assay; design: species or system Homo sapiens
# [4] = Inhibition of 6His-tagged wildtype KRAS (1 to 169 residues)/GST-tagged GMPPNP-bound BRAF RBD (155 to 229 reisudes)/Cyclophilin A (unknown origin) tri-complex protein-protein interaction incubated for 3 hrs by TR-FERT based disruption assay; design: species or system Homo sapiens
# CAPAN-1 = assay: Cytotoxicity against human CAPAN-1 cells harboring KRAS G12V mutant cultured as 2D cells assessed as reduction in cell viability incubated for 120 hrs by CellTiter-Glo luminescence assay; assay type: functional, cell-based; details: CAPAN-1, 120 h
# ASPC1 = assay: Cytotoxicity against human ASPC1 cells harboring KRAS G12D mutant cultured as 2D cells assessed as reduction in cell viability incubated for 120 hrs by CellTiter-Glo luminescence assay; assay type: functional, cell-based; details: ASPC1, 120 h
# NCI-H358 = assay: Cytotoxicity against human NCI-H358 cells harboring KRAS G12C mutant cultured as 2D cells assessed as reduction in cell viability incubated for 120 hrs by CellTiter-Glo luminescence assay; assay type: functional, cell-based; details: NCI-H358, 120 h
# NCI-H1975 = assay: Cytotoxicity against human NCI-H1975 cells harboring wildtype KRAS cultured as 2D cells assessed as reduction in cell viability incubated for 120 hrs by CellTiter-Glo luminescence assay; assay type: functional, cell-based; details: NCI-H1975, 120 h
# [5] = Inhibition of ERK1/2 phosphorylation in human CAPAN-1 cells harboring KRAS G12V mutant incubated for 4 hrs by AlphaLISA assay; assay type: cell-based; details: CAPAN-1, 4 h
# [6] = Inhibition of ERK1/2 phosphorylation in human NCI-H358 cells harboring KRAS G12C mutant incubated for 4 hrs by AlphaLISA assay; assay type: cell-based; details: NCI-H358, 4 h
# [7] = Inhibition of ERK1/2 phosphorylation in human ASPC1 cells harboring KRAS G12D mutant incubated for 4 hrs by AlphaLISA assay; assay type: cell-based; details: ASPC1, 4 h
# [8] = Metabolic stability in mouse liver microsomes assessed as half-life at 2 uM measured upto 60 mins in presence of NADPH by LC-MS/MS analysis; assay type: ADME, Microsome
# A-375 = assay: Cytotoxicity against human A-375 cells assessed as reduction in cell viability incubated for 120 hrs by CellTiter-Glo luminescence assay; assay type: functional, cell-based; details: A-375, 120 h
# [9] = Kinetic solubility of compound in PBS at pH 7.4 measured after 5 hrs by UV analysis; assay type: physicochemical; details: read-out: Kinetic_solubility
# [10] = Apparent permeability across apical to basolateral side in human Caco-2 cells at 5 uM incubated for 2 hrs by LC-MS/MS analysis; assay type: ADME, cell-based
# [11] = Efflux ratio of apparent permeability in human Caco-2 cells at 5 uM incubated for 2 hrs by LC-MS/MS analysis; assay type: ADME, cell-based
# [12] = Clearance in female BALB/c mouse at 1 mg/kg, iv measured after 24 hrs by LC-MS/MS analysis; assay type: ADME, organism-based; details: in vivo
# [13] = Half-life in female BALB/c mouse at 1 mg/kg, iv measured after 24 hrs by LC-MS/MS analysis; assay type: ADME, organism-based; details: in vivo
# [14] = Oral bioavailability in female BALB/c mouse at 10 mg/kg measured after 24 hrs by LC-MS/MS analysis; assay type: ADME, organism-based; details: in vivo
# [15] = Inhibition of 6His-tagged KRAS G12V mutant(1 to 169 residues)/GST-tagged GMPPNP-bound BRAF RBD (155 to 229 reisudes)/Cyclophilin A (unknown origin) tri-complex protein-protein interaction incubated for 3 hrs by TR-FERT based disruption assay; design: species or system Homo sapiens
# [16] = Lipophilicity, logD of compound at pH 7.4 by Agilent 1290 II uPLC analysis; assay type: physicochemical; details: buffer
# [17] = Clearance in female BALB/c mouse blood at 1 mg/kg, iv measured after 24 hrs by LC-MS/MS analysis; assay type: ADME, organism-based
# [18] = Clearance in female BALB/c mouse plasma at 1 mg/kg, iv measured after 24 hrs by LC-MS/MS analysis; assay type: ADME, organism-based
# [19] = Oral bioavailability in female BALB/c mouse blood at 10 mg/kg measured after 24 hrs by LC-MS/MS analysis; assay type: ADME, organism-based
# [20] = Oral bioavailability in female BALB/c mouse plasma at 10 mg/kg measured after 24 hrs by LC-MS/MS analysis; assay type: ADME, organism-based
# Peptidyl-prolyl cis-trans isomerase A, sequence (P62937 whole entry, the tested form may be a part): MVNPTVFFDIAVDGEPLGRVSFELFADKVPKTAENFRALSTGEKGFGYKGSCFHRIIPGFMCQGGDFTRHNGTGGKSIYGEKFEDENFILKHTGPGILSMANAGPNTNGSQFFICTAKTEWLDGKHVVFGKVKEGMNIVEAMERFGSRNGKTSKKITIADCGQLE
Kd [1] [nM],IC50 [2] [nM],IC50 [3] [nM],IC50 [4] [nM],EC50 [5] [nM],EC50 [6] [nM],EC50 [7] [nM],half-life at 2 µM [8] [min],solubility kinetic at 5 h [9] [µM],"Papp A→B at 2 h, 5 µM [10] [×10⁻⁶ cm/s]","efflux ratio at 2 h, 5 µM [11]",clearance [12] [mL/min/kg],half-life [13] [min],IC50 [15] [nM],logD [16],Compound,EC50 (CAPAN-1) [nM],EC50 (NCI-H358) [nM],EC50 (NCI-H1975) [nM],EC50 (A-375) [nM],EC50 (ASPC1) [nM],also measured
293,491,35,107,2,1,22,9,< 2,0.09,13.6,65,48,–,–,CCn1c(-c2cccnc2[C@H](C)OC)c2c3cc(ccc31)-c1csc(n1)C[C@H](NC(=O)[C@H](C(C)C)N(C)C(=O)N1CCC1)C(=O)N1CCC[C@H](N1)C(=O)OCC(C)(C)C2,11,7,28,4400,–,IC50 (ASPC1): 37 nM; bioavailability [14]: 2.2%
468,548,58,108,3,11,42,5,49,0.94,2.9,55,42,–,–,CCn1c(-c2cccnc2[C@H](C)OC)c2c3cc(ccc31)-c1csc(n1)C[C@H](NC(=O)[C@H](C(C)C)N(C)C(=O)N(C)C)C(=O)N1CCC[C@H](N1)C(=O)OCC(C)(C)C2,18,6,26,5820,–,IC50 (ASPC1): 75 nM; bioavailability [14]: 0.8%
60,151,29,69,0.3,1.7,2.4,> 120,23,0.3,43,–,–,40,4.1,CCn1c(-c2cc(N3CCN(C)CC3)cnc2[C@H](C)OC)c2c3cc(ccc31)-c1csc(n1)C[C@H](NC(=O)[C@H]1[C@@H]3COC[C@@H]31)C(=O)N1CCC[C@H](N1)C(=O)OCC(C)(C)C2,1.1,0.4,0.4,9450,2.1,–
6520,2310,224,628,124,952,> 10000,44,5,3.1,1.7,3.33,96,334,4.3,CCn1c(-c2cccnc2[C@H](C)OC)c2c3cc(ccc31)-c1csc(n1)C[C@H](NC(=O)[C@H]1CCO1)C(=O)N1CCC[C@H](N1)C(=O)OCC(C)(C)C2,615,429,402,> 10000,1640,bioavailability [14]: 44%
396,277,50,117,1.3,4.9,15.2,–,5,2.2,–,–,–,64,5.3,CCn1c(-c2cc(N3CCN(C4CC4)CC3)cnc2[C@H](C)OC)c2c3cc(ccc31)-c1csc(n1)C[C@H](NC(=O)[C@H]1C[C@@H]1C)C(=O)N1CCC[C@H](N1)C(=O)OCC(C)(C)C2,8.1,3.4,–,> 10000,13.9,–
–,435,50,138,2,10.6,50.1,> 120,117,0.4,62,–,–,77,4.3,CCn1c(-c2cc(N3CCN(C)CC3)cnc2[C@H](C)OC)c2c3cc(ccc31)-c1csc(n1)C[C@H](NC(=O)[C@H]1CCO1)C(=O)N1CCC[C@H](N1)C(=O)OCC(C)(C)C2,14.2,22.3,7.9,6950,45.2,–
2420,346,51,139,11,26,146,26,15,2.3,7.5,6.67,126,84,–,CCn1c(-c2cccnc2[C@H](C)OC)c2c3cc(ccc31)-c1csc(n1)C[C@H](NC(=O)[C@H]1[C@@H]3COC[C@@H]31)C(=O)N1CCC[C@H](N1)C(=O)OCC(C)(C)C2,69,30,–,> 10000,92,bioavailability [14]: 49%
77,249,40,103,0.7,2.9,4.2,> 120,56,0.6,12,–,–,55,–,CCn1c(-c2cc(N3CCN(C4COC4)CC3)cnc2[C@H](C)OC)c2c3cc(ccc31)-c1csc(n1)C[C@H](NC(=O)[C@H]1C[C@@H]1C)C(=O)N1CCC[C@H](N1)C(=O)OCC(C)(C)C2,1.8,0.8,0.9,> 10000,4.1,clearance [17]: 6.67 mL/min/kg; clearance [18]: 51.7 mL/min/kg; bioavailability [19]: 49%; bioavailability [20]: 27%
23,272,53,116,0.5,2.1,4.4,> 120,130,0.2,96,–,–,71,3.9,CCn1c(-c2cc(N3CC4CC(C3)N4C)cnc2[C@H](C)OC)c2c3cc(ccc31)-c1csc(n1)C[C@H](NC(=O)[C@H]1C[C@@H]1C)C(=O)N1CCC[C@H](N1)C(=O)OCC(C)(C)C2,2.1,1.7,–,2980,5.3,clearance [17]: 16.7 mL/min/kg; bioavailability [19]: 5.7%
18700,1950,208,615,147,166,3410,94,15,4.3,1.6,5,120,301,4.8,CCn1c(-c2cccnc2[C@H](C)OC)c2c3cc(ccc31)-c1csc(n1)C[C@H](NC(=O)C1CC1)C(=O)N1CCC[C@H](N1)C(=O)OCC(C)(C)C2,485,403,188,5950,852,bioavailability [14]: 53%

Compound,Kd [1] [nM],IC50 [2] [nM],IC50 [3] [nM],IC50 [4] [nM],EC50 [5] [nM],EC50 [6] [nM],EC50 [7] [nM],half-life at 2 µM [8] [min],solubility kinetic at 5 h [9] [µM],"Papp A→B at 2 h, 5 µM [10] [×10⁻⁶ cm/s]","efflux ratio at 2 h, 5 µM [11]",clearance [12] [mL/min/kg],half-life [13] [min],IC50 [15] [nM],logD [16],EC50 (CAPAN-1) [nM],EC50 (NCI-H358) [nM],EC50 (NCI-H1975) [nM],EC50 (A-375) [nM],EC50 (ASPC1) [nM],also measured
CCn1c(-c2cccnc2[C@H](C)OC)c2c3cc(ccc31)-c1csc(n1)C[C@H](NC(=O)[C@H](C(C)C)N(C)C(=O)OC)C(=O)N1CCC[C@H](N1)C(=O)OCC(C)(C)C2,184,3070,302,742,8,63,326,11,< 2,0.08,7.4,–,–,–,–,28,35,–,5420,–,IC50 (ASPC1): 400 nM
